What was measured:
[1] = test system: FAM-Pu22 (DNA, G4) TGAGGGTGGGTAGGGTGGGTAA; assay: fluorescence intensity titration of labelled DNA; conditions: 150 mM KCl; 10 mM Tris-HCl, pH 7.4, RT, 2-3% DMSO, 50 nM DNA
[2] = test system: FAM-Pu22 (DNA, G4) TGAGGGTGGGTAGGGTGGGTAA; assay: microscale thermophoresis; conditions: 150 mM KCl; 10 mM Tris-HCl, pH 7.4
[3] = test system: c-Myc (Pu22) (DNA, G4) TGAGGGTGGGTAGGGTGGGTAA; assay: thiazole orange displacement (FID); conditions: 140 mM KCl, 20 mM Na cacodylate; pH 7, RT, 10% DMSO; 0.5 μM TO displaced, 0.5 μM DNA
[4] = test system: c-Myc (Pu22) (DNA, G4) TGAGGGTGGGTAGGGTGGGTAA; assay: 1H NMR; conditions: 70 mM KCl, 25 mM KPi; pH 7, 298 K, 10% DMSO-d6, 0.1 mM DNA
[5] = test system: dsDNA 24bp (FAM-duplex) (DNA, duplex) CGCGAATTCGCGCGCGAATTCGCG; assay: microscale thermophoresis; conditions: 150 mM KCl; 10 mM Tris-HCl, pH 7.4
[6] = test system: c-Myc (Pu22) (DNA, G4) TGAGGGTGGGTAGGGTGGGTAA; assay: 1H NMR titration; conditions: 70 mM KCl, 25 mM KPi; pH 7, 298 K, 10% DMSO-d6, 0.1 mM DNA

SMILES | K D FAM [1] [µM] | K D MST [2] [µM] | DC50 FID [3] | binding [4] | Kd [5] [µM] | binding [6]
CN(C)Cc1c[nH]c2ccc(N)cc12 | 6.29 ± 0.71 | 2.21 ± 0.89 | 3.83 ± 0.11 µM | weak | – | –
CN(C)Cc1c[nH]c2ccc([N+](=O)[O-])cc12 | 15.21 ± 1.93 | 13.22 ± 0.80 | 19.11 ± 0.88 µM | – | – | –
Cc1cc2cc(N)ccc2n1C | 12.32 ± 0.94 | 17.18 ± 0.54 | 14.53 ± 0.61 µM | – | – | –
Cn1ccc2cc(N)ccc21 | 6.30 ± 0.63 | 2.32 ± 0.41 | 3.71 ± 0.32 µM | weak | – | –
NCCNCCNCCNCCNCc1c[nH]c2ncccc12 | – | – | 16.63 ± 1.93 µM | – | – | –
NCCNCCNCCNCCNCc1ccc2c(c1)OCO2 | – | – | 18.11 ± 1.69 µM | – | – | –
NCCNCCNCCNCCNCc1n[nH]c2ccccc12 | – | – | 15.63 ± 1.08 µM | – | – | –
Nc1ccc2c(ccn2CCCN2CCCC2)c1 | 7.12 ± 0.45 | 2.86 ± 0.33 | 6.31 ± 0.43 µM | – | 18.0 ± 1.33 | –
O=[N+]([O-])c1ccc2[nH]cc(CNCCN3CCCC3)c2c1 | 7.53 ± 0.93 | 5.52 ± 0.61 | 6.81 ± 0.9 µM | yes | – | –
O=[N+]([O-])c1ccc2c(c1)c(CNCCN1CCCC1)cn2CCCN1CCCC1 | 2.81 ± 0.37 | 1.30 ± 0.21 | 3.30 ± 0.86 µM | – | 32.3 ± 1.69 | yes
O=[N+]([O-])c1ccc2c(ccn2CCCN2CCCC2)c1 | 2.43 ± 0.29 | 1.49 ± 0.12 | 5.01 ± 0.15 µM | yes | 38.1 ± 2.39 | –
c1cc2c(cc1CNCCN1CCCC1)OCO2 | – | – | 16.11 ± 1.33 µM | – | – | –
c1ccc2c(c1)ccn2CCCN1CCCC1 | 16.87 ± 1.58 | 15.11 ± 0.30 | 19.12 ± .92 µM | – | – | –

— article PMC8252724 (2021)
